From ChEMBL document CHEMBL1150713, “Bioactive stilbenes of Scirpus maritimus” (J Nat Prod, 1987)
Values after ≈ are worked out from the molar mass of the structure shown.

Key:
[1] = Cytotoxicity against mouse 3PS cells xenografted in mouse at 35 mg/kg relative to control; type: functional
Spodoptera frugiperda = test: Antifeedant activity against Spodoptera frugiperda assessed as feeding ratio for 5 seconds; type: functional
[2] = test system: Agrobacterium tumefaciens; test: Antitumor activity against Agrobacterium tumefaciens-induced crown gall tumor assessed as tumor inhibition in potato tubers by potato disk assay relative to control; type: functional
[3] = Toxicity in Artemia salina; type: organism-based; details: in vivo
[4] = test system: Agrobacterium tumefaciens; test: Effect on Agrobacterium tumefaciens-induced crown gall tumor in potato tubers by potato disk assay relative to control; type: functional
[5] = Cytotoxicity against mouse 3PS cells xenografted in mouse at 37 mg/kg relative to control; type: functional
[6] = Cytotoxicity against mouse 3PS cells xenografted in mouse at 30 mg/kg relative to control; type: functional
[7] = Cytotoxicity against mouse 3PS cells xenografted in mouse at 18 mg/kg relative to control; type: functional

SMILES	T/C [1] [%]	Ratio (Spodoptera frugiperda)	inhibition (INH) [2] [%]	LC50 [3] [µg/mL]	Activity [4] [%]	T/C [5] [%]	T/C [6] [%]	T/C [7] [%]
Oc1cc(O)cc(/C=C/c2ccc(O)c(O)c2)c1 [PICEATANNOL]	131	0.38	17	278 (≈ 1140 µM)				
Oc1ccc(/C=C/c2cc(O)cc(O)c2)cc1 [RESVERATROL]					39	100		
Oc1ccc(/C=C/c2cc(O)cc3c2[C@H](c2cc(O)cc(O)c2)[C@@H](c2ccc(O)c(O)c2)O3)cc1 [SCIRPUSIN A]		1		488 (≈ 1040 µM)	17		103	
Oc1cc(O)cc(C2c3c(/C=C/c4ccc(O)c(O)c4)cc(O)cc3OC2c2ccc(O)c(O)c2)c1 (centres undefined) [SCIRPUSIN B]		0.23	40	389 (≈ 800 µM)				99
